Experimental data as given in the supplement of paper PMC8960247.
Counter-ions that a name gives are not always drawn. ± gives the standard error.

Experiments:
621-103 (TSC2-rescued) = experiment: relative viability vs DMSO; higher = less cytotoxic; conditions: serum: 10% FBS, 72 h
621-102 (TSC2-deficient) = experiment: as above; conditions: serum: 10% FBS, 72 h
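Further: immortalized renal angiomyolipoma cells stably carrying empty vector or TSC2, dosed in 384-well plates in DMEM, viability normalized to vehicle-treated wells within each plate.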

| Compound | relative viability (621-103 (TSC2-rescued); 0.0001 µM) | relative viability (621-103 (TSC2-rescued); 0.001 µM) | relative viability (621-103 (TSC2-rescued); 0.01 µM) | relative viability (621-103 (TSC2-rescued); 0.1 µM) | relative viability (621-103 (TSC2-rescued); 1 µM) | relative viability (621-103 (TSC2-rescued); 10 µM) | relative viability (621-102 (TSC2-deficient); 0.0001 µM) | relative viability (621-102 (TSC2-deficient); 0.001 µM) | relative viability (621-102 (TSC2-deficient); 0.01 µM) | relative viability (621-102 (TSC2-deficient); 0.1 µM) | relative viability (621-102 (TSC2-deficient); 1 µM) | relative viability (621-102 (TSC2-deficient); 10 µM) |
| --- | --- | --- | --- | --- | --- | --- | --- | --- | --- | --- | --- | --- |
| COc1ccccc1N1CCN(CCN2C(=O)CC3(CCCC3)CC2=O)CC1 [BMY 7378] | 96.7 ± 4.4% | 96.58 ± 0.1% | 99.07 ± 0.31% | 98.2 ± 1.8% | 105 ± 1.9% | 105 ± 1.3% | 104.1 ± 0.41% | 110 ± 3.7% | 100 ± 3.8% | 104.4 ± 0.88% | 105 ± 0.26% | 95.3 ± 2.3% |
| CC(C)c1cnn2c(NCc3ccccc3)cc(NCCCCCCN)nc12 [BS-181] | 101 ± 2.2% | 101.1 ± 1% | 99.7 ± 1.7% | 88.3 ± 1.2% | 100 ± 1.4% | 55.7 ± 5.2% | 112 ± 2.3% | 107 ± 3.7% | 106.4 ± 0.99% | 94.74 ± 0.88% | 116 ± 2.2% | 81.2 ± 7.1% |
| NC(=O)c1ccc(I)c([N+](=O)[O-])c1 [BSI-201] | 108 ± 2.5% | 103 ± 1.1% | 105.9 ± 0.65% | 102 ± 1.9% | 100.5 ± 0.3% | 102.3 ± 0.13% | 136 ± 2.7% | 130 ± 0.89% | 126.6 ± 0.33% | 116.12 ± 0.099% | 113.7 ± 0.28% | 110 ± 3.1% |
| O=C(O)[C@H]1O[C@@H](Oc2cc3oc(-c4ccccc4)cc(=O)c3c(O)c2O)[C@H](O)[C@@H](O)[C@@H]1O [Baicalin] | 113.5 ± 0.92% | 106 ± 1.2% | 118.8 ± 1.1% | 106 ± 4.6% | 105 ± 1.2% | 107.9 ± 0.63% | 97.45 ± 0.88% | 108 ± 3.8% | 106 ± 2.6% | 106 ± 1.6% | 110 ± 1.3% | 98.5 ± 1.3% |
| CCOC(=O)[C@H](CCc1ccccc1)N[C@H]1CCc2ccccc2N(CC(=O)O)C1=O [Benazepril HCl] | 82.5 ± 11% | 89.7 ± 11% | 89.6 ± 6.1% | 98.8 ± 6.3% | 95.2 ± 4.9% | 89.9 ± 6.7% | 68 ± 2.9% | 82 ± 2.6% | 83 ± 5.2% | 81.1 ± 7.4% | 74.6 ± 9.9% | 69.8 ± 4.9% |
| NC(CO)C(=O)NNCc1ccc(O)c(O)c1O (centres undefined) [Benserazide HCl] | 108.8 ± 0.38% | 104 ± 2.7% | 110 ± 2.1% | 109.5 ± 0.88% | 114 ± 2.6% | 105 ± 3.1% | 98.1 ± 5.3% | 93.8 ± 2.6% | 103 ± 3.5% | 107 ± 1.3% | 106 ± 2.3% | 101 ± 1.4% |
| CC(C[N+](C)(C)C)OC(N)=O (centres undefined) [Bethanechol chloride] | 96.28 ± 0.78% | 102 ± 1.9% | 105 ± 1.4% | 105 ± 0.93% | 103.7 ± 0.9% | 101.6 ± 0.12% | 103 ± 3.5% | 105 ± 3.1% | 104 ± 2.9% | 103.4 ± 0.49% | 100 ± 1.8% | 101 ± 3% |
